These results are taken from patent US8765717B2 (Monte Verde S.A., priority 2008, dated 2014).

Structures are written as SMILES.

For series [1], the system named is patients suffering from primary hip or knee arthritis (I, II or III). The series can be described thus: Clinical trial: Lequesne algo-functional index of severity. In kind it is in vivo, humans. The settings on record: for Decrease in the Lequesne scale in the 25% of patients with enhanced recovery / Decrease in the Lequesne scale in the 25% of patients with enhanced recovery (percent): 25% of the patients. The method, then:
(§1) Data from a clinical trial with humans is provided herein. The trial was performed with three arms, at random and blind, of patients suffering from different degrees of primary hip or knee arthritis (I, II or III). […] Pain and joint function performance was checked every fifteen days by using the pain VAS and the Lequesne algo-functional index of severity. The VAS assesses the pain in the knee by a visual scale of 100 mm with a total of 10 divisions wherein 0 means no pain and 10 means the deepest pain. […] The severity index is given by the addition of the scores obtained in each item, wherein 24 is the maximum possible score. The higher the index, the more severe is the clinical picture.

For series [2] the test system is unchanged. The series can be described thus: Clinical trial: pain VAS. In kind it is in vivo, humans. The note with it: check-up visits every fifteen days. The procedure: as §1
The conditions of series [3]: patients in clinical trials; cited from earlier work.
The conditions of series [4]: 37° C.; cited from earlier work.

On to `Cc1cnc(NC(=O)C2=C(O)c3ccccc3S(=O)(=O)N2C)s1` [meloxicam, (8E)-8-[hydroxy-[(5-methyl-1,3-thiazol-2-yl)amino]methylidene]-9-methyl-10,10-dioxo-10λ^6-thia-9-azabicyclo[4.4.0]deca-1,3,5-trien-7-one], for which, in series [1] (90 days oral treatment), the “Decrease in the Lequesne scale in the 25% of patients with enhanced recovery” value is given as 4.5 scores and the “Decrease in the Lequesne scale in the 25% of patients with enhanced recovery (percent)” value was determined as 38%. Moreover, the “Time after starting treatment at which VAS value showed the highest reduction” value in series [2] is 15 days. In series [3], the “Occurrence of adverse gastrointestinal events (bleeding, perforation or ulcers) versus other nonsteroidal anti-inflammatory drugs” value is “less frequent”.

What is called pKa is the pH at which an ionisable group is half protonated. For `N[C@H]1C(O)O[C@H](CO)[C@@H](O)[C@@H]1O` (stereo partly drawn) [glucosamine, 2-amin-2 desoxy-alpha-D-glucose], in series [1] (90 days oral treatment), the “Decrease in the Lequesne scale in the 25% of patients with enhanced recovery” value turned out to be 3.75 scores and the “Decrease in the Lequesne scale in the 25% of patients with enhanced recovery (percent)” value worked out at 32%. Also, the “Average improvement in the Lequesne index in 50% of the patients” value in series [1] (50% of the patients, 90 days oral treatment) was 1.5 scores. Also, the “Lequesne scale (Algo-functional index) average decrease” value in series [1] (90 days, single daily oral dose, 1,500 mg glucosamine sulphate and/or 15 mg meloxicam) amounted to 11%. Moreover, the “Time after starting treatment at which VAS value showed the highest reduction” value in series [2] turned out to be 30 days. Besides, the pKa in series [4] is given as 6.91.
